Like-named read-outs stand apart in the source and are kept apart here. Non-standard residues stand in square brackets, D forms with d. Residues, ends and D or L forms follow the SMILES beside them. Nle = CCCC[C@H](N)C(=O)O
What was measured:
[1] = system: IMR-90 cells; experiment: DNA damage-induced cell death by adriamycin in IMR-90 cells; type: cell-based, human; settings: pBabe-hSIRT1-363Y infected vs mock infected IMR-90 cells, different concentrations of adriamycin, 48 hr
Method: (§2) Both mock infected cells and pBabe-hSIRT1-363Y infected cells were either not treated (I and III) or treated with 50 μM H2O2 (II and IV) (E), or treated with different concentrations of adriamycin as indicated. 48 hr later, the cells were collected for analysis (D).
(§3) IMR-90 cells were infected with either a pBabe retrovirus empty vector or a pBabe retrovirus containing hSIRT1-363Y, and cultured for a week under pharmacological selection.

[2] = system: IMR-90 cells
Method: The cells were analyzed for apoptotic cells (subG1) according to DNA content (PI staining). […] Cells were either not treated (I) or treated with 100 μM H2O2 (II, III, IV) for 24 hr. […] Both mock infected cells and pBabe-Sir2α infected cells were either not treated (I and III) or treated with 200 μM H2O2 (II and IV). 24 hr later, the cells were photographed under a microscope.
as §2
IMR-90 cells were infected with either a pBabe retrovirus empty vector or a pBabe retrovirus containing Sir2α, and cultured for a week under pharmacological selection.
as §3
After one-week selection, the cells were either frozen for stock or immediately used for further analysis.

[3] = system: Sir2α-mediated deacetylation of endogenous p53 in MEF p53(+/+) cells; experiment: Sir2α-mediated deacetylation of endogenous p53 in pBabe-Sir2α infected MEF p53(+/+) cells (western blot); type: cell-based, mouse; settings: etoposide and TSA in combination with nicotinamide, 6 hr
Method: FIG. 3. Abrogation of mammalian Sir2α mediated deacetylation of p53 by nicotinamide. (A) Sir2α-mediated deacetylation of p53 is inhibited by nicotinamide. 2.5 μg of ^14C-labeled acetylated p53 (lane 1) was incubated with 10 ng of purified Sir2α and 50 μM NAD alone (lane 2), or in the presence of either 5 mM of nicotinamide (lane 3) or 3 mM of 3-AB (3-aminobenzamide) (lane 4) for 60 min at 30° C. The proteins were analyzed by resolution on SDS-PAGE and autoradiography (upper) or Coomassie blue staining (lower). (B) Enhancement of endogenous p53 acetylation levels by nicotinamide. […] (C) The Sir2α-mediated deacetylation of endogenous p53 was abrogated in the presence of nicotinamide. […] The cell extracts from untreated cells (lane 1), or treated with ALLN (50 μM) were also included (lane 6).
Furthermore, we examined the effect of Sir2α expression on endogenous levels of acetylated p53. […] We first examined the protein levels of p53 activation in response to DNA damage in these cells by western blot analysis.
(§1) After treatment, the cells were harvested for western blot analysis. […] The cell extracts were resolved by either 8% or 4-20% SDS-PAGE gels (Novex) and analyzed by western blot with α-p53(Ac)-C and α-p53(DO-1).

[4] = biological target: T1, Sir2α (Mus musculus, UniProt Q923E4); experiment: In vitro p53 deacetylation assay with purified Flag-tagged Sir2α; type: biochemical; settings: 10 ng Sir2α, 50 μM NAD, 60 min at 30° C.; TSA 500 nM, nicotinamide 5 mM, 3-AB 3 mM
T1 construct: To construct Sir2α expression constructs, the full-length cDNA was subcloned from pET28a-Sir2α; Flag (N); made in house
T1 sequence (Q923E4 1-737): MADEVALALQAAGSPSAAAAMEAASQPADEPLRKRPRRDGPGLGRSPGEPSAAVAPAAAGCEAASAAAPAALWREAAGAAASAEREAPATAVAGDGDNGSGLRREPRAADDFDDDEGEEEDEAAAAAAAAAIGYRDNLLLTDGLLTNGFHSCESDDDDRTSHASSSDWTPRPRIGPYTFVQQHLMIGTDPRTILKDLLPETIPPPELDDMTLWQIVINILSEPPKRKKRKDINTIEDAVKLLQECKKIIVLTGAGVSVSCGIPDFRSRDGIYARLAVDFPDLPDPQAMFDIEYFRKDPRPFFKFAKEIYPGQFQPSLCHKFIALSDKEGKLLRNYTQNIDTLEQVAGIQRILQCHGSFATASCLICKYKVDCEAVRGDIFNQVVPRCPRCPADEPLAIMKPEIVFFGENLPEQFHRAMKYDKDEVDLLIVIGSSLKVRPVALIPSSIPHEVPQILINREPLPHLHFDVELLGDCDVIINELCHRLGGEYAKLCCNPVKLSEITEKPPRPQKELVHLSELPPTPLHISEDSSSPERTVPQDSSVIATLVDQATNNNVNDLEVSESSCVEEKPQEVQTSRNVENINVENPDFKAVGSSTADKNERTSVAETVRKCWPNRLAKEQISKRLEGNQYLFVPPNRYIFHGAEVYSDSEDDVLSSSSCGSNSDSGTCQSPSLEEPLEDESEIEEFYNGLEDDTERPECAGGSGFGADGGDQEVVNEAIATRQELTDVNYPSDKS
Method: FIG. 2. TSA-insensitive deacetylation of p53 by mammalian Sir2α. (A) Colloidal blue staining of a SDS-PAGE gel containing protein Marker (lane 1), a control eluate from M2 loaded with untransfected cell extract (lane 2), and 100 ng of the highly purified Flag-tagged Sir2α recombinant protein (lane 3). (B) Deacetylation of p53 by Sir2α. […] NAD (50 μM) was also added in each reaction except lane 2. The proteins were analyzed by resolution on SDS-PAGE and autoradiography (upper) or Coomassie blue staining (lower). (C) Reduction of the steady-state levels of acetylated p53 by both mouse Sir2α and human SIRT1 expression. Western blot analysis of H1299 cell extracts from the cells cotransfected with p53 and p300 (lane 1), or in combination with Sir2α (lane 2), or in combination with hSIRT1 (lane 4), or Sir2α-355A (lane 3), or hSIRT1-363Y (lane 5), or hSIRT5 (lane 6), or PARP (lane 7) by acetylated p53-specific antibody (upper) or DO-1 for total p53 (lower). The highly conserved histidine residue at the core domain was replaced by alanine for mouse Sir2α (a.a. 355) Sir2α-355A), or replaced by tyrosine for human SIRT1 (a.a. 363) (hSIRT1-363Y). […] The acetylated p53 levels in the cells cotransfected with p53 and p300 (lanes 1, 3), or cotransfected with p53, p300 and Sir2α (lanes 2, 4).
FIG. 3. Abrogation of mammalian Sir2α mediated deacetylation of p53 by nicotinamide. (A) Sir2α-mediated deacetylation of p53 is inhibited by nicotinamide. […] The proteins were analyzed by resolution on SDS-PAGE and autoradiography (upper) or Coomassie blue staining (lower). […]
The Flag-tagged Sir2α cells were established and expanded in DMEM medium, and cell extracts were prepared essentially as previously described (Luo et al., 2000; Gu et al., 1999). […] The eluted proteins were resolved by a SDS-PAGE gel and analyzed by colloidal blue staining (Novex). […] The reactions were resolved on SDS-PAGE and analyzed by Coomassie blue staining and autoradiography.

[5] = system: acetylated p53 in H460 cells; experiment: Acetylation levels of endogenous p53 in H460 cells during DNA damage response (western blot); type: cell-based, human; settings: for acetylation level of p53, agent added to etoposide and TSA: etoposide + TSA + agent vs etoposide + TSA, nicotinamide 5 mM
Method: FIG. 3. […] 2.5 μg of ^14C-labeled acetylated p53 (lane 1) was incubated with 10 ng of purified Sir2α and 50 μM NAD alone (lane 2), or in the presence of either 5 mM of nicotinamide (lane 3) or 3 mM of 3-AB (3-aminobenzamide) (lane 4) for 60 min at 30° C. The proteins were analyzed by resolution on SDS-PAGE and autoradiography (upper) or Coomassie blue staining (lower). […] The cell extracts from untreated cells (lane 1), or treated with ALLN (50 μM) were also included (lane 6).
After treatment, the cells were harvested for western blot analysis. The rabbit polyclonal antibody specific for p300-mediated acetylated p53-[α-p53(Ac)-C] was raised and purified against the acetylated human p53 C-terminal peptide [p53 (Ac)-C: H-S55GQSTSRH55LMF-OH (5=acetylated Lysine)] as described before (Luo et al., 2000). In the case of cotransfection assays testing for p53 acetylation levels, H1299 cells were transfected with 5 μg of CMV-p53 plasmid DNA, 5 μg of CMV-p300 plasmid DNA, and 10 μg of pcDNA3—Sir2α plasmid DNA as indicated. […] The cell extracts were resolved by either 8% or 4-20% SDS-PAGE gels (Novex) and analyzed by western blot with α-p53(Ac)-C and α-p53(DO-1).

[6] = system: acetylated p53 in H1299 cells; experiment: Acetylated p53 levels in H1299 cells cotransfected with p53 and p300 (western blot); type: cell-based, human; settings: H1299 cells cotransfected with p53 and p300, 500 nM TSA vs not treated
Method: FIG. 2. TSA-insensitive deacetylation of p53 by mammalian Sir2α. (A) Colloidal blue staining of a SDS-PAGE gel containing protein Marker (lane 1), a control eluate from M2 loaded with untransfected cell extract (lane 2), and 100 ng of the highly purified Flag-tagged Sir2α recombinant protein (lane 3). (B) Deacetylation of p53 by Sir2α. […] NAD (50 μM) was also added in each reaction except lane 2. The proteins were analyzed by resolution on SDS-PAGE and autoradiography (upper) or Coomassie blue staining (lower). (C) Reduction of the steady-state levels of acetylated p53 by both mouse Sir2α and human SIRT1 expression. Western blot analysis of H1299 cell extracts from the cells cotransfected with p53 and p300 (lane 1), or in combination with Sir2α (lane 2), or in combination with hSIRT1 (lane 4), or Sir2α-355A (lane 3), or hSIRT1-363Y (lane 5), or hSIRT5 (lane 6), or PARP (lane 7) by acetylated p53-specific antibody (upper) or DO-1 for total p53 (lower). The highly conserved histidine residue at the core domain was replaced by alanine for mouse Sir2α (a.a. 355) Sir2α-355A), or replaced by tyrosine for human SIRT1 (a.a. 363) (hSIRT1-363Y). […]
as §1

For `COc1cccc2c1C(=O)c1c(O)c3c(c(O)c1C2=O)C[C@@](O)(C(=O)CO)C[C@@H]3O[C@H]1C[C@H](N)[C@H](O)[C@H](C)O1` [adriamycin], the “sensitivity to DNA damage-induced cell death” value [1] was “much more sensitive”.

For `OO` [H2O2, hydrogen peroxide], the cells being killed ([2]; mock (pBabe-vector) infected IMR-90 cells, 200 μM H2O2, 24 hr) was “more than 80%”, the “susceptibility to H2O2-induced cell death” value ([2]; mock infected IMR-90 cells, 50 μM H2O2) was “relatively resistant” and the cells surviving ([2]; pBabe-Sir2α infected IMR-90 cells, 200 μM H2O2, 24 hr) was “about 70%”. For the same molecule, the cells surviving ([2]; pBabe-hSIRT1-363Y infected IMR-90 cells, 50 μM H2O2) was “less than 30%”.

For `NC(=O)c1cccnc1` [nicotinamide], the “effect on Sir2α-mediated deacetylation of endogenous p53” value [3] was “completely abrogated”, the “effect on Sir2α-mediated deacetylation of 14C-labeled acetylated p53” value (“effect … of 14C-labeled acetylated p53” for short) [4] was “completely inhibited” and the “acetylation level of p53, agent added to etoposide and TSA” value ([5]; 6 hr) was “super induction”. For the same molecule, the “cellular levels of acetylated p53 induced by DNA damage” value ([5]; etoposide plus nicotinamide vs etoposide alone) was “enhanced”.

With `CCCC[C@@H](C=O)NC(=O)[C@H](CC(C)C)NC(=O)[C@H](CC(C)C)NC(C)=O` [ALLN] (Ac-Leu-Leu-[Nle]-aldehyde) the “acetylation of p53, single agent vs untreated cells” value ([5]; 6 hr, etoposide 20 μM, ALLN 50 μM) was “no significant p53 acetylation was detected”.

In the case of `NC(=O)c1cccc(N)c1` [3-AB, 3-aminobenzamide], the “effect … of 14C-labeled acetylated p53” value [4] is reported as “no significant effect” and the “acetylation level of p53, agent added to etoposide and TSA” value ([5]; 6 hr) is reported as “no effect”.

In the case of `CC(/C=C/C(=O)NO)=C\[C@@H](C)C(=O)c1ccc(N(C)C)cc1` [TSA, Trichostatin A], the “effect … of 14C-labeled acetylated p53” value [4] is reported as “no apparent effect”, the “acetylation level of p53 during DNA damage response, agent added to etoposide” value ([5]; 6 hr, etoposide plus TSA (0.5 μM) vs etoposide alone) is reported as “mild enhancement” and the “steady state level of acetylated p53” value [6] is reported as “elevated”.

Source: patent publication US20080119434A1, “Sir2a-based therapeutic and prophylactic methods” (The Trustees of Colubia University, priority 2001, published 2008)
